Test results from PubChem BioAssay AID1963841 (Molecular Pharmacology Branch, DTP, NCI, 2024).

System: 439559-082-T-J2-PDC spheroid viability
Test: Anticancer human tumor 439559-082-T-J2-PDC patient-derived colon adenocarcinoma cell line growth inhibition [POLQ]
Settings: spheroids with HUVEC and MSC; for IC50: curve of first compound; for viability, T/C: stronger effect = lower value
How it was run: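 Growth inhibition in 3D: complex spheroids (tumor PDC, HUVEC, MSC) treated with POLQ inhibitor combinations; where Cmax unknown, highest tested concentration 10 microM, except SN-38 at 1 microM.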

[1] = second compound 0.0316 µM, first compound 0.0316 µM
[2] = second compound 0.0316 µM, first compound 0.1 µM
[3] = second compound 0.0316 µM, first compound 0.316 µM
[4] = second compound 0.0316 µM, first compound 1 µM
[5] = second compound 0.1 µM, first compound 0.0316 µM
[6] = second compound 0.1 µM, first compound 0.1 µM
[7] = second compound 0.1 µM, first compound 0.316 µM
[8] = second compound 0.1 µM, first compound 1 µM
[9] = second compound 0.316 µM, first compound 0.0316 µM
[10] = second compound 0.316 µM, first compound 0.1 µM
[11] = second compound 0.316 µM, first compound 0.316 µM
[12] = second compound 0.316 µM, first compound 1 µM
[13] = second compound 1 µM, first compound 0.0316 µM
[14] = second compound 1 µM, first compound 0.1 µM
[15] = second compound 1 µM, first compound 0.316 µM
[16] = second compound 1 µM, first compound 1 µM
[17] = second compound 3.16 µM, first compound 0.0316 µM
[18] = second compound 3.16 µM, first compound 0.1 µM
[19] = second compound 3.16 µM, first compound 0.316 µM
[20] = second compound 3.16 µM, first compound 1 µM
[21] = second compound 10 µM, first compound 0.0316 µM
[22] = second compound 10 µM, first compound 0.1 µM
[23] = second compound 10 µM, first compound 0.316 µM
[24] = second compound 10 µM, first compound 1 µM
[25] = second compound 0.0316 µM, first compound 3.16 µM
[26] = second compound 0.0316 µM, first compound 10 µM
[27] = second compound 0.1 µM, first compound 3.16 µM
[28] = second compound 0.1 µM, first compound 10 µM
[29] = second compound 0.316 µM, first compound 3.16 µM
[30] = second compound 0.316 µM, first compound 10 µM
[31] = second compound 1 µM, first compound 3.16 µM
[32] = second compound 1 µM, first compound 10 µM
[33] = second compound 3.16 µM, first compound 3.16 µM
[34] = second compound 3.16 µM, first compound 10 µM
[35] = second compound 10 µM, first compound 3.16 µM
[36] = second compound 10 µM, first compound 10 µM
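Note: spheroids exposed to compounds for seven days before readout.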
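Throughout, for viability, T/C: 100% = DMSO vehicle control viability.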

SMILES: COc1cccc(OCCCN)c1-c1cc(Nc2cnc(C#N)cn2)n[nH]1 + COC1C(OC(N)=O)C(O)C(Oc2ccc3c(O)c(NC(=O)c4ccc(O)c(CC=C(C)C)c4)c(=O)oc3c2C)OC1(C)C
- IC50 (second compound 0.0316 µM): 0.142 µM
- IC50 (second compound 0.1 µM): 0.158 µM
- IC50 (second compound 0.316 µM): 0.145 µM
- IC50 (second compound 1 µM): 0.109 µM
- IC50 (second compound 3.16 µM): 0.133 µM
- IC50 (second compound 10 µM): 0.128 µM
- viability, T/C (second compound 0.0316 µM, first compound 0.00316 µM): 87%
- viability, T/C (second compound 0.0316 µM, first compound 0.01 µM): 88.1%
- viability, T/C [1]: 70.1%
- viability, T/C [2]: 61.4%
- viability, T/C [3]: 31.3%
- viability, T/C [4]: 17.4%
- viability, T/C (second compound 0.1 µM, first compound 0.00316 µM): 98.5%
- viability, T/C (second compound 0.1 µM, first compound 0.01 µM): 82%
- viability, T/C [5]: 76.4%
- viability, T/C [6]: 65.3%
- viability, T/C [7]: 30.9%
- viability, T/C [8]: 18.3%
- viability, T/C (second compound 0.316 µM, first compound 0.00316 µM): 94.6%
- viability, T/C (second compound 0.316 µM, first compound 0.01 µM): 90.3%
- viability, T/C [9]: 72.3%
- viability, T/C [10]: 62%
- viability, T/C [11]: 31.7%
- viability, T/C [12]: 19.1%
- viability, T/C (second compound 1 µM, first compound 0.00316 µM): 105%
- viability, T/C (second compound 1 µM, first compound 0.01 µM): 82.1%
- viability, T/C [13]: 72.6%
- viability, T/C [14]: 52.9%
- viability, T/C [15]: 31.8%
- viability, T/C [16]: 16.4%
- viability, T/C (second compound 3.16 µM, first compound 0.00316 µM): 102%
- viability, T/C (second compound 3.16 µM, first compound 0.01 µM): 85.6%
- viability, T/C [17]: 73.6%
- viability, T/C [18]: 59.1%
- viability, T/C [19]: 30.9%
- viability, T/C [20]: 18.2%
- viability, T/C (second compound 10 µM, first compound 0.00316 µM): 103%
- viability, T/C (second compound 10 µM, first compound 0.01 µM): 86.8%
- viability, T/C [21]: 77%
- viability, T/C [22]: 56.4%
- viability, T/C [23]: 30.5%
- viability, T/C [24]: 17.5%

SMILES: C#Cc1c(F)ccc2cc(O)cc(-c3ncc4c(N5CC6CCC(C5)N6)nc(OCC56CCCN5CC(F)C6)nc4c3F)c12 (stereo unspecified) + COC1C(OC(N)=O)C(O)C(Oc2ccc3c(O)c(NC(=O)c4ccc(O)c(CC=C(C)C)c4)c(=O)oc3c2C)OC1(C)C
- IC50 (second compound 0.0316 µM): > 10 µM
- IC50 (second compound 0.1 µM): > 10 µM
- IC50 (second compound 0.316 µM): > 10 µM
- IC50 (second compound 1 µM): > 10 µM
- IC50 (second compound 3.16 µM): > 10 µM
- IC50 (second compound 10 µM): > 10 µM
- viability, T/C [1]: 87.5%
- viability, T/C [2]: 90.6%
- viability, T/C [3]: 73.8%
- viability, T/C [4]: 69.2%
- viability, T/C [25]: 58.4%
- viability, T/C [26]: 50.3%
- viability, T/C [5]: 96%
- viability, T/C [6]: 89.1%
- viability, T/C [7]: 80%
- viability, T/C [8]: 68.9%
- viability, T/C [27]: 59.7%
- viability, T/C [28]: 52.1%
- viability, T/C [9]: 101%
- viability, T/C [10]: 84.8%
- viability, T/C [11]: 75.8%
- viability, T/C [12]: 67.7%
- viability, T/C [29]: 61.1%
- viability, T/C [30]: 51.1%
- viability, T/C [13]: 96.5%
- viability, T/C [14]: 88%
- viability, T/C [15]: 75%
- viability, T/C [16]: 63.9%
- viability, T/C [31]: 57.4%
- viability, T/C [32]: 49.8%
- viability, T/C [17]: 97.2%
- viability, T/C [18]: 93.9%
- viability, T/C [19]: 70.4%
- viability, T/C [20]: 63.9%
- viability, T/C [33]: 60.6%
- viability, T/C [34]: 49%
- viability, T/C [21]: 103%
- viability, T/C [22]: 92.1%
- viability, T/C [23]: 73.5%
- viability, T/C [24]: 67.2%
- viability, T/C [35]: 64.4%
- viability, T/C [36]: 49.6%

SMILES: CC1COCCN1c1cc(C2(S(C)(=N)=O)CC2)nc(-c2ccnc3[nH]ccc23)n1 (stereo unspecified) + COC1C(OC(N)=O)C(O)C(Oc2ccc3c(O)c(NC(=O)c4ccc(O)c(CC=C(C)C)c4)c(=O)oc3c2C)OC1(C)C
- IC50 (second compound 0.0316 µM): > 10 µM
- IC50 (second compound 0.1 µM): > 10 µM
- IC50 (second compound 0.316 µM): > 10 µM
- IC50 (second compound 1 µM): > 10 µM
- IC50 (second compound 3.16 µM): > 10 µM
- IC50 (second compound 10 µM): > 10 µM
- viability, T/C [1]: 97.4%
- viability, T/C [2]: 98.2%
- viability, T/C [3]: 94%
- viability, T/C [4]: 101%
- viability, T/C [25]: 89.8%
- viability, T/C [26]: 65.8%
- viability, T/C [5]: 100%
- viability, T/C [6]: 101%
- viability, T/C [7]: 105%
- viability, T/C [8]: 92.6%
- viability, T/C [27]: 89.7%
- viability, T/C [28]: 66.4%
- viability, T/C [9]: 101%
- viability, T/C [10]: 91.2%
- viability, T/C [11]: 93.5%
- viability, T/C [12]: 94.8%
- viability, T/C [29]: 90.2%
- viability, T/C [30]: 67%
- viability, T/C [13]: 95%
- viability, T/C [14]: 99.3%
- viability, T/C [15]: 91.7%
- viability, T/C [16]: 86.6%
- viability, T/C [31]: 88.8%
- viability, T/C [32]: 66.8%
- viability, T/C [17]: 94.7%
- viability, T/C [18]: 96.7%
- viability, T/C [19]: 89.7%
- viability, T/C [20]: 90.8%
- viability, T/C [33]: 87.2%
- viability, T/C [34]: 64%
- viability, T/C [21]: 99.7%
- viability, T/C [22]: 97.4%
- viability, T/C [23]: 103%
- viability, T/C [24]: 89.4%
- viability, T/C [35]: 86.1%
- viability, T/C [36]: 63.9%
